Holding throughout (assay): relative viability (nuclei count vs DMSO), 5 days (fraction); higher = more cells survive
Compound in test [1]: Cc1ccc(NC(=O)c2ccc(CN3CCN(C)CC3)cc2)cc1Nc1nc(-c2cccnc2)cs1 [Masitinib] + C[C@]1(O)C[C@@H](c2nc(-c3ccc4ccc(-c5ccccc5)nc4c3)c3c(N)nccn32)C1 [Linsitinib] (partner 1 µM)
The method in brief:
(§1)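 Relative viability divides the nuclei count in treated wells by that in vehicle wells. Lung cancer cell lines were seeded in 1536-well plates, dosed by pin tool the next day, and fixed and stained after 5 days in one step with final 0.05% Triton X-100, 1% formaldehyde and 1 ug/ml Hoechst. Dosing was a single drug or a fixed anchor-drug dose plus five library-drug doses (not always all listed) in √10 steps, and values are medians of duplicate plates imaged at 4×.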

Compound in test [2]: CC1=CC(=CC=C1)NC2=NC(=CS2)C3=CC=NC=C3 + CCNC(=O)c1noc(-c2cc(C(C)C)c(O)cc2O)c1-c1ccc(CN2CCOCC2)cc1 [Luminespib] (partner 0.01 µM)
The method in brief: as §1

Compound in test [3]: Cc1ccc(NC(=O)c2ccc(CN3CCN(C)CC3)cc2)cc1Nc1nc(-c2cccnc2)cs1 [Masitinib] + Nc1ncn([C@H]2C[C@H](O)[C@@H](CO)O2)c(=O)n1 [Decitabine] (partner 2 µM)
The essentials: as §1

Compound in test [4]: Cc1ccc(NC(=O)c2ccc(CN3CCN(C)CC3)cc2)cc1Nc1nc(-c2cccnc2)cs1 [Masitinib] + CC(=O)Nc1cccc(-n2c(=O)n(C3CC3)c(=O)c3c(Nc4ccc(I)cc4F)n(C)c(=O)c(C)c32)c1 [Trametinib] (partner 0.02 µM)
The method in brief:
as §1

Data on seven cell lines can be found in the supplement of paper PMC10307832.

Regarding NCI-H3122, the relative viability in test [1] (first compound 0.01 µM) is 1.01; in test [1] (first compound 0.03162 µM), 1.01; in test [1] (first compound 0.1 µM), 1.06; in test [1] (first compound 0.3162 µM), 0.828; in test [1] (first compound 1 µM), 1.1; in test [2] (first compound 0.08 µM) it was 0.125. In addition, the relative viability in test [2] (first compound 0.253 µM) worked out at 0.0766; in test [2] (first compound 0.8 µM) it was 0.101; in test [2] (first compound 2.53 µM), 0.0836; in test [2] (first compound 8 µM), 0.105; in test [3] (first compound 0.01 µM), 0.528; in test [3] (first compound 0.03162 µM), 0.484. Besides, the relative viability in test [3] (first compound 0.1 µM) was found to be 0.525; in test [3] (first compound 0.3162 µM) it was 0.467; in test [3] (first compound 1 µM) it was 0.451; in test [4] (first compound 0.01 µM), 0.26; in test [4] (first compound 0.03162 µM), 0.243; in test [4] (first compound 0.1 µM), 0.24. The relative viability in test [4] (first compound 0.3162 µM) turned out to be 0.267; in test [4] (first compound 1 µM), 0.168.

Take PC-3 [JPC-3]: the relative viability in test [1] (first compound 0.01 µM) worked out at 0.969; in test [1] (first compound 0.03162 µM), 1; in test [1] (first compound 0.1 µM), 0.951; in test [1] (first compound 0.3162 µM) it was 0.961; in test [1] (first compound 1 µM) it was 0.964; in test [2] (first compound 0.08 µM) it was 0.715. In addition, the relative viability in test [2] (first compound 0.253 µM) came to 0.723; in test [2] (first compound 0.8 µM), 0.532; in test [2] (first compound 2.53 µM), 0.633; in test [2] (first compound 8 µM) it was 0.629; in test [3] (first compound 0.01 µM), 0.828; in test [3] (first compound 0.03162 µM), 0.771. For the same cell line, the relative viability in test [3] (first compound 0.1 µM) stood at 0.824; in test [3] (first compound 0.3162 µM), 0.819; in test [3] (first compound 1 µM) it was 0.785; in test [4] (first compound 0.01 µM), 0.723; in test [4] (first compound 0.03162 µM), 0.651; in test [4] (first compound 0.1 µM), 0.733. Also, the relative viability was 0.576 in test [4] (first compound 0.3162 µM) and 0.616 in test [4] (first compound 1 µM).

As for PC-14, the relative viability in test [1] (first compound 0.01 µM) was 0.918; in test [1] (first compound 0.03162 µM) it was 0.904; in test [1] (first compound 0.1 µM), 1; in test [1] (first compound 0.3162 µM), 0.976; in test [1] (first compound 1 µM), 0.999; in test [2] (first compound 0.08 µM), 0.143. In addition, the relative viability in test [2] (first compound 0.253 µM) was 0.183; in test [2] (first compound 0.8 µM), 0.171; in test [2] (first compound 2.53 µM), 0.123; in test [2] (first compound 8 µM), 0.138; in test [3] (first compound 0.01 µM), 0.217; in test [3] (first compound 0.03162 µM) it was 0.202. In addition, the relative viability in test [3] (first compound 0.1 µM) is 0.192; in test [3] (first compound 0.3162 µM), 0.16; in test [3] (first compound 1 µM) it was 0.25; in test [4] (first compound 0.01 µM) it was 0.774; in test [4] (first compound 0.03162 µM) it was 0.634; in test [4] (first compound 0.1 µM), 0.909. Also, the relative viability in test [4] (first compound 0.3162 µM) came to 0.729; in test [4] (first compound 1 µM), 0.821.

Consider RERF-LC-KJ, for which the relative viability in test [1] (first compound 0.01 µM) came out at 0.878; in test [1] (first compound 0.03162 µM), 0.849; in test [1] (first compound 0.1 µM) it was 0.926; in test [1] (first compound 0.3162 µM) it was 0.871; in test [1] (first compound 1 µM), 0.736; in test [2] (first compound 0.08 µM), 1.06. Further, the relative viability in test [2] (first compound 0.253 µM) came out at 1.19; in test [2] (first compound 0.8 µM), 0.982; in test [2] (first compound 2.53 µM), 0.999; in test [2] (first compound 8 µM) it was 0.717; in test [3] (first compound 0.01 µM), 0.631; in test [3] (first compound 0.03162 µM), 0.71. For the same cell line, the relative viability in test [3] (first compound 0.1 µM) is 0.743; in test [3] (first compound 0.3162 µM) it was 0.762; in test [3] (first compound 1 µM), 0.618; in test [4] (first compound 0.01 µM) it was 0.769; in test [4] (first compound 0.03162 µM), 0.836; in test [4] (first compound 0.1 µM), 0.834. For the same cell line, the relative viability worked out at 0.809 in test [4] (first compound 0.3162 µM) and 0.763 in test [4] (first compound 1 µM).

Turning to SK-LU-1, the relative viability stood at 1.06 in test [1] (first compound 0.01 µM); 1.22 in test [1] (first compound 0.03162 µM); 1.26 in test [1] (first compound 0.1 µM); 1.43 in test [1] (first compound 0.3162 µM); 1.25 in test [1] (first compound 1 µM); 0.205 in test [2] (first compound 0.08 µM). Further, the relative viability in test [2] (first compound 0.253 µM) came to 0.223; in test [2] (first compound 2.53 µM) it was 0.183; in test [2] (first compound 8 µM) it was 0.227; in test [3] (first compound 0.01 µM) it was 0.569; in test [3] (first compound 0.03162 µM) it was 0.526; in test [3] (first compound 0.1 µM), 0.725. The relative viability in test [3] (first compound 0.3162 µM) was 0.594; in test [3] (first compound 1 µM) it was 0.646; in test [4] (first compound 0.01 µM), 0.513; in test [4] (first compound 0.03162 µM) it was 0.406; in test [4] (first compound 0.1 µM), 0.534; in test [4] (first compound 0.3162 µM) it was 0.555. In addition, the relative viability in test [4] (first compound 1 µM) is 0.464.

As for SK-MES-1, the relative viability was 1.11 in test [1] (first compound 0.01 µM); 1.18 in test [1] (first compound 0.03162 µM); 1.16 in test [1] (first compound 0.1 µM); 1.03 in test [1] (first compound 0.3162 µM); 0.987 in test [1] (first compound 1 µM); 0.614 in test [2] (first compound 0.08 µM). Moreover, the relative viability in test [2] (first compound 0.253 µM) turned out to be 0.515; in test [2] (first compound 0.8 µM), 0.556; in test [2] (first compound 2.53 µM), 0.749; in test [2] (first compound 8 µM) it was 0.508; in test [3] (first compound 0.01 µM), 0.329; in test [3] (first compound 0.03162 µM), 0.399. In addition, the relative viability in test [3] (first compound 0.1 µM) was determined as 0.376; in test [3] (first compound 0.3162 µM) it was 0.39; in test [3] (first compound 1 µM) it was 0.337; in test [4] (first compound 0.01 µM) it was 0.519; in test [4] (first compound 0.03162 µM), 0.528; in test [4] (first compound 0.1 µM) it was 0.561. The relative viability in test [4] (first compound 0.3162 µM) stood at 0.485; in test [4] (first compound 1 µM), 0.514.

Regarding SW 1573, the relative viability is 0.689 in test [1] (first compound 0.01 µM); 0.848 in test [1] (first compound 0.03162 µM); 0.985 in test [1] (first compound 0.1 µM); 0.838 in test [1] (first compound 0.3162 µM); 0.803 in test [1] (first compound 1 µM); 0.296 in test [2] (first compound 0.08 µM). Besides, the relative viability in test [2] (first compound 0.253 µM) was found to be 0.19; in test [2] (first compound 0.8 µM) it was 0.16; in test [2] (first compound 2.53 µM), 0.248; in test [2] (first compound 8 µM), 0.253; in test [3] (first compound 0.01 µM) it was 0.492; in test [3] (first compound 0.03162 µM) it was 0.537. Besides, the relative viability in test [3] (first compound 0.1 µM) came out at 0.535; in test [3] (first compound 0.3162 µM), 0.51; in test [3] (first compound 1 µM), 0.471; in test [4] (first compound 0.01 µM) it was 0.666; in test [4] (first compound 0.03162 µM) it was 0.603; in test [4] (first compound 0.1 µM), 0.551. The results for the relative viability in test [4] (first compound 0.3162 µM) and in test [4] (first compound 1 µM) were 0.542 and 0.581, respectively.
